Activity calls are given as the source filed them. The calls are words filed in the database; no cut-off is given here.
What was measured:
Type in all cases: functional, cell-based
SiHa [1] = assay: Cytotoxicity against human SiHa cells
C-33-A [2] = assay: Induction of autophagy in human C-33-A cells assessed as decrease in p62 expression at 30 uM incubated for 42 hrs by microscopic analysis
SiHa [3] = assay: Induction of autophagy in human SiHa cells assessed as increase in LC3I to LC3II conversion at 30 uM measured upto 42 hrs by microscopic analysis; details: time hrs <=42
SiHa [4] = assay: Induction of autophagy in human SiHa cells assessed as decrease in p62 expression at 30 uM measured upto 42 hrs by microscopic analysis; details: time hrs <=42
C-33-A [5] = assay: Induction of autophagy in human C-33-A cells assessed as increase in LC3I to LC3II conversion at 30 uM incubated for 42 hrs by microscopic analysis
SiHa [6] = assay: Induction of autophagy in human SiHa cells assessed as […] in GFP-LC3 level by fluorescence microscopy
C-33-A [7] = assay: Cytotoxicity against human C-33-A cells
SiHa [8] = assay: Induction of autophagy in human SiHa cells assessed as vacuole formation incubated for 24 hrs by microscopic analysis

| Compound | IC50 (SiHa [1]) [µM] | further results |
| --- | --- | --- |
| CC(C)(C)c1cc(C(C)(C)C)c2oc(C(c3ccc(Cl)cc3)c3c[nH]c4ccc([N+](=O)[O-])cc34)cc2c1 (stereo not given) | 36.9 | Activity (C-33-A [2]): Active; Activity (SiHa [3]): Active; Activity (SiHa [4]): Active; Activity (C-33-A [5]): Active; Activity (SiHa [6]): Active; IC50 (C-33-A [7]): 29.4 µM; Activity (SiHa [8]): Active |
| Cc1c(C(c2ccccc2)c2cc3ccccc3o2)[nH]c2ccccc12 (stereo not given) | > 100 | – |
| CC(C)(C)c1cc(C(C)(C)C)c2oc(C(c3ccccc3)c3c[nH]c4ccc([N+](=O)[O-])cc34)cc2c1 (stereo not given) | 48.2 | – |
| COc1ccc2oc(C(c3ccccc3)c3[nH]c4ccccc4c3C)cc2c1 (stereo not given) | > 100 | – |
| Cc1c(C(c2ccc(Cl)cc2)c2cc3ccccc3o2)[nH]c2ccccc12 (stereo not given) | 72.5 | – |
| CC(C)(C)c1cc(C(C)(C)C)c2oc(C(c3ccc(Cl)cc3)c3c[nH]c4ccccc34)cc2c1 (stereo not given) | 49.8 | IC50 (C-33-A [7]): 34.2 µM |
| Clc1ccc2oc(C(c3ccccc3)c3c[nH]c4ccccc34)cc2c1 (stereo not given) | 58 | – |
| COc1ccc(C(c2cc3ccccc3o2)c2c[nH]c3ccccc23)cc1 (stereo not given) | > 100 | – |
| Cc1c(C(c2ccccc2)c2cc3cc(C(C)(C)C)cc(C(C)(C)C)c3o2)[nH]c2ccccc12 (stereo not given) | > 100 | – |
| O=[N+]([O-])c1ccc2[nH]cc(C(c3ccccc3)c3cc4cc(Cl)ccc4o3)c2c1 (stereo not given) | > 100 | – |
| CC(C)(C)c1cc(C(C)(C)C)c2oc(C(c3ccccc3)c3c[nH]c4ccccc34)cc2c1 (stereo not given) | 61.6 | – |
| Cc1[nH]c2ccccc2c1C(c1ccccc1)c1cc2cc(Cl)ccc2o1 (stereo not given) | 47.5 | IC50 (C-33-A [7]): 38.7 µM |
| Cc1[nH]c2ccccc2c1C(c1ccccc1)c1cc2cc(C(C)(C)C)cc(C(C)(C)C)c2o1 (stereo not given) | 72 | – |
| COc1ccc2oc(C(c3ccccc3)c3c(C)[nH]c4ccccc34)cc2c1 (stereo not given) | > 100 | – |
| Cc1[nH]c2ccccc2c1C(c1ccccc1)c1cc2ccccc2o1 (stereo not given) | 56.5 | – |
| Cc1[nH]c2ccccc2c1C(c1ccc(Cl)cc1)c1cc2cc(C(C)(C)C)cc(C(C)(C)C)c2o1 (stereo not given) | 35.9 | Activity (C-33-A [2]): Active; Activity (SiHa [3]): Active; Activity (SiHa [4]): Active; Activity (C-33-A [5]): Active; Activity (SiHa [6]): Active; IC50 (C-33-A [7]): 31.2 µM; Activity (SiHa [8]): Active |
| COc1ccc(C(c2cc3ccccc3o2)c2[nH]c3ccccc3c2C)cc1 (stereo not given) | > 100 | – |
| Cc1c(C(c2ccccc2)c2cc3cc(Cl)ccc3o2)[nH]c2ccccc12 (stereo not given) | 77.9 | – |
| COc1ccc(C(c2cc3cc(C(C)(C)C)cc(C(C)(C)C)c3o2)c2c[nH]c3ccc([N+](=O)[O-])cc23)cc1 (stereo not given) | > 100 | – |
| c1ccc(C(c2cc3ccccc3o2)c2c[nH]c3ccccc23)cc1 (stereo not given) | 71.1 | – |
| O=[N+]([O-])c1ccc2[nH]cc(C(c3ccccc3)c3cc4ccccc4o3)c2c1 (stereo not given) | 40.4 | IC50 (C-33-A [7]): 35.2 µM |
| COc1ccc(C(c2cc3ccccc3o2)c2c(C)[nH]c3ccccc23)cc1 (stereo not given) | > 100 | – |
| COc1ccc2oc(C(c3ccccc3)c3c[nH]c4ccccc34)cc2c1 (stereo not given) | > 100 | – |
